Measurements as given in patent US20230365564A1, “COCRYSTALS OF AN ADENOSINE A2B RECEPTOR ANTAGONIST” (Teon Therapeutics, Inc., priority 2020, published 2023).

Columns and labels:
[1] = XRPD form change after standing in aqueous media at 37° C.; assay type: physicochemical; settings: for form change (XRPD) after equilibrating in the aqueous media: 24 hours at 37° C.
Experimental: X-ray powder diffraction (XRPD) was performed using a Bruker D8 Advance® instrument with a Lynxeye® XE T(1D mode) detector at an open angle of 2.94° in continuous scan mode using a Cu/K-α (λ−1.5418 Å) source. The diffraction patterns were obtain over a scan range from 3° to 40° with 0.02° steps, a step duration of 0.12, and a sample rotation speed of 15 rpm.
(§1) The kinetic solubility experiments were conducted for the free form and the three cocrystals in the following media: (1) pH 1.0 (0.1N) HCl solution, (2) pH 4.5 (50 mM) acetate buffer, (3) pH 6.8 (50 mM) phosphate buffer, (4) FeSSIF-v1 (Fed state stimulated intestinal fluid version 1) (pH 5.0), (5) FaSSIF-v1 (Fasted state stimulated intestinal fluid version 1) (pH 6.5), (6) SGF (Simulated gastric fluid) (pH 2.0), and (7) FaSSIF-v1/4% Soluplus®, and (8) SGF/4% Soluplus®.
(§2) After combining with the respective media at 37° C., the concentration of the free form or cocrystal and the XRPD was measured at 0.5 hours, 2 hours, and 24 hours.
The XRPD patterns shown in FIGS. 19-23 are associated with the aqueous media described in Table 1 and for the free form (Compound (1), FF), the benzenesulfonic acid cocrystal (BSA CC), the para-toluenesulfonic acid cocrystal (pTSA CC), and the fumaric acid cocrystal (FA CC).

[2] = Kinetic solubility (solubility-time profile) in biologically relevant fluids; assay type: physicochemical; settings: for solubility: 0.5 h, 2 h and 24 h; for solubility-time profile: 0.5 h to 24 h; for solubility compared with the free form: several biologically relevant media
Experimental: The solubility-time profile of free form compound (1) and the three cocrystals was evaluated in different aqueous media.
as §1, §2

[3] = Aqueous solubility of compound (1); assay type: physicochemical; settings: aqueous medium; substantially independent of pH over a relevant physiological range
[4] = Pharmacokinetics following peroral administration to dogs; parameters: species or system beagle dogs; settings: dog, in vivo
Experimental: The pharmacokinetics of the fumaric acid cocrystal of Example 4 was evaluated following peroral administration to dogs.
Male beagle dogs were separated into two groups of three dogs.
[…] The dosing formulation consisted of 0.40 mg/mL of the fumaric acid cocrystal in 4% Soluplus® in simulated gastric fluid (SGF) at pH 2.0, as a homogeneous opaque suspension of fine particles.
[…] The dosing formulation consisted of 2 mg/mL of the fumaric acid cocrystal in 4% Soluplus® in simulated gastric fluid (SGF) at pH 2.0, as a homogeneous opaque suspension of fine particles.

[5] = Bulk stability (HPLC and XRPD); assay type: physicochemical
Experimental: The bulk stability of the free form and the cocrystals was determined by exposing the compounds to conditions of temperature, humidity and/or radiation flux and evaluating the compound by HPLC and XRPD.

[6] = Dynamic vapor sorption (DVS) hygroscopicity; assay type: physicochemical; settings: for water absorption (DVS): at 95% RH; for water absorption (DVS) / form change after DVS: 25° C.; for form change after DVS: humidity cycle 40-0-95-0-40% RH
Experimental: Dynamic vapor sorption (DVS) was performed using an Advantage instrument at a total gas flow rate of 200 sccm, an oven temperature of 25° C. with water as the solvent. The humidity cycle was 40-0-95-0-40% RH at step intervals of 10% RH with an equilibration of 0.002 dm/dt (%/min), a maximum, dm/dt stability duration of 60 min, and a maximum dm/dt stage time of 360 min.

[7] = pH 1.0 HCl, pH 4.5 acetate, pH 6.8 phosphate, FeSSIF-v1, FaSSIF-v1
[8] = SGF, FaSSIF-v1/4% Soluplus and SGF/4% Soluplus
[9] = oral, 5 mg/kg, 0.5% methylcellulose
[10] = 25° C./60% RH in an open vial, 2 weeks
[11] = 40° C./75% RH in an open vial, 2 weeks
[12] = 60° C. in a closed vial, 2 weeks
[13] = above 80% RH at 25° C. (then becomes)
[14] = po, 2 mg/kg peroral, fed male beagle dogs, 4% Soluplus in SGF pH 2.0
[15] = po, 10 mg/kg peroral, fed male beagle dogs, 4% Soluplus in SGF pH 2.0

Row | SMILES | form change (XRPD) after equilibrating in the aqueous media [1, 7] | form change after solubility study [1, 8] | solubility-time profile ([2]; FaSSIF-v1/4% Soluplus, 37° C.) | solubility-time profile ([2]; SGF/4% Soluplus, 37° C.) | bulk stability ([5]; 1.2 million lux-hrs) | bulk stability [5, 10] | bulk stability [5, 11] | bulk stability [5, 12] | solubility compared with the free form [2] | water adsorption ([6]; 25° C./80% RH) | water adsorption ([6]; 25° C./95% RH) | hygroscopicity (DVS) [6, 13] | water absorption (DVS) [6] | hygroscopicity (DVS) ([6]; below 80% RH at 25° C.) | form change after DVS [6] | further results
1 | CCCn1c(=O)c2[nH]c(-c3cnn(Cc4cccc(C(F)(F)F)c4)c3)nc2n(CC)c1=O [Compound (1), 3-Ethyl-1-propyl-8-(1-(3-(trifluoromethyl)benzyl)-1H-pyrazol-4-yl)-3,7-dihydro-1H-purine-2,6-dione] | did not show a change in form | no form change | increased over time | increased over time | did not exhibit any significant degradation | did not exhibit any significant degradation | did not exhibit any significant degradation | did not exhibit any significant degradation | – | – | – | – | – | – | – | solubility ([2]; FaSSIF-v1, 37° C.): below the level of quantification (LOQ); solubility ([2]; FeSSIF-v1, 37° C.): below the level of quantification (LOQ); solubility-time profile ([2]; SGF, 37° C.): maintained in the same magnitude; solubility ([2]; pH 1.0 HCl solution, 37° C.): below the level of quantification (LOQ); solubility ([2]; pH 4.5 acetate buffer, 37° C.): below the level of quantification (LOQ); solubility ([2]; pH 6.8 phosphate buffer, 37° C.): below the level of quantification (LOQ); solubility [3]: < 1 µg/mL; Cmax [4, 9]: 81 ng/mL; Tmax [4, 9]: 2 h; half-life [4, 9]: 63 h; AUC(0-t) ([4]; oral, 5 mg/kg, 0.5% methylcellulose, read-out: AUC0-24): 796 ng·h/mL
2 | CCCn1c(=O)c2[nH]c(-c3cnn(Cc4cccc(C(F)(F)F)c4)c3)nc2n(CC)c1=O.Cc1ccc(S(=O)(=O)O)cc1 [para-toluenesulfonic acid cocrystal, 3-ethyl-1-propyl-8-(1-(3-(trifluoromethyl)benzyl)-1H-pyrazol-4-yl)-3,7-dihydro-1H-purine-2,6-dione and para-toluenesulfonic acid] | completely dissociated to the free form | dissociated to free form | first increased and then decreased | first increased and then decreased | did not exhibit any significant degradation | did not exhibit any significant degradation | did not exhibit any significant degradation | did not exhibit any significant degradation | higher solubility than the free form | 1.1 wt % | 1.1 wt % | slightly hygroscopic | 11% | only slightly hygroscopic | No form change | –
3 | CCCn1c(=O)c2[nH]c(-c3cnn(Cc4cccc(C(F)(F)F)c4)c3)nc2n(CC)c1=O.O=C(O)/C=C/C(=O)O [fumaric acid cocrystal, 3-ethyl-1-propyl-8-(1-(3-(trifluoromethyl)benzyl)-1H-pyrazol-4-yl)-3,7-dihydro-1H-purine-2,6-dione and fumaric acid] | – | – | – | – | did not exhibit any significant degradation | did not exhibit any significant degradation | did not exhibit any significant degradation | did not exhibit any significant degradation | higher solubility than the free form | 1.7 wt % | 4.0 wt % | – | 4% | – | No form change | form change (XRPD) after equilibrating in the aqueous media ([1]; FaSSIF-v1): only partially dissociated to the free form; form change (XRPD) after equilibrating in the aqueous media ([1]; FeSSIF-v1): only partially dissociated to the free form; form change (XRPD) after equilibrating in the aqueous media ([1]; pH 1.0 HCl solution): did not show any form change; form change (XRPD) after equilibrating in the aqueous media ([1]; pH 4.5 acetate buffer): only partially dissociated to the free form; form change after solubility study ([1]; FaSSIF-v1/4% Soluplus): converted to a mixture of the cocrystal and amorphous state (free form); form change after solubility study ([1]; SGF): dissociated to free form; form change after solubility study ([1]; SGF/4% Soluplus): converted to a mixture of the cocrystal and amorphous state (free form); AUC(0-inf) [4, 14]: 2220 ng·h/mL; Cmax [4, 14]: 148 ng/mL; Tmax [4, 14]: 4 h; half-life [4, 14]: 14.8 h; AUC(0-inf) [4, 15]: 21100 ng·h/mL; Cmax [4, 15]: 976 ng/mL; Tmax [4, 15]: 10.7 h; half-life [4, 15]: 6.5 h; hygroscopicity (DVS) ([6]; above 90% RH at 25° C. (then becomes)): hygroscopic; hygroscopicity (DVS) ([6]; below 90% RH at 25° C.): slightly hygroscopic
4 | CCCn1c(=O)c2[nH]c(-c3cnn(Cc4cccc(C(F)(F)F)c4)c3)nc2n(CC)c1=O.O=S(=O)(O)c1ccccc1 [benzenesulfonic acid cocrystal, 3-ethyl-1-propyl-8-(1-(3-(trifluoromethyl)benzyl)-1H-pyrazol-4-yl)-3,7-dihydro-1H-purine-2,6-dione and benzenesulfonic acid] | completely dissociated to the free form | dissociated to free form | increased over time | increased over time | stable | stable | began to show some disassociation | stable | higher solubility than the free form | 2.2 wt % | 65 wt % | highly hygroscopic | 65% | only slightly hygroscopic | No form change | –
